# Data: US8791132B2, “Compounds and methods for treatment of hypertension” (Medivation Technologies, Inc., priority 2011, dated 2014)
# Where two headings read alike, the source gives them in different places.
# Experiments:
# [1] = biological target: T1, human recombinant adrenergic α2B receptor (Homo sapiens, UniProt P18089); assay: Radioligand binding, adrenergic α2B ([3H]Rauwolscine)
# T1 construct: expressed in transfected cells; host or cells: CHO-K1
# T1 sequence (P18089 1-450): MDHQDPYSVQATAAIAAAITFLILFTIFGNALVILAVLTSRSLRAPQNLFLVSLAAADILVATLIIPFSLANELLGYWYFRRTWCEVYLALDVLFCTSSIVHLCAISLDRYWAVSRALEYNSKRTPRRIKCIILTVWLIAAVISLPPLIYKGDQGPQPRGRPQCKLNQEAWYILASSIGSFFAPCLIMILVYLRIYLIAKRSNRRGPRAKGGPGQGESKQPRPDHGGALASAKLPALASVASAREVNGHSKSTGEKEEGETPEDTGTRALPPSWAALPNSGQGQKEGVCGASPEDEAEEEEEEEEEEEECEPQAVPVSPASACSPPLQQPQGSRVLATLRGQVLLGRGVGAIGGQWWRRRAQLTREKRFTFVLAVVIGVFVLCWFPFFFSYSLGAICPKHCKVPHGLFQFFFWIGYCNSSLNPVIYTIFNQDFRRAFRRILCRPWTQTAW
# Outline: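 Readout: percent inhibition of specific [3H]Rauwolscine binding, measured by filtration and counting. Conditions: CHO-K1 cell-expressed receptor, 2.5 nM radioligand, 60 min, 25° C, Tris-HCl pH 7.4 buffer with MgCl2, EDTA, BSA. Non-specific binding: 10 μM Prazosin.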
# [2] = biological target: T2, human recombinant adrenergic α2A receptor (Homo sapiens, UniProt P08913); assay: Radioligand binding, adrenergic α2A ([3H]MK-912); conditions: for Percentage inhibition of ligand binding, Adrenergic α2A / Percentage inhibition of ligand binding, Adrenergic α2A (0.1 μM): compound at 0.1 μM, 0.1 µM; for Percentage inhibition of ligand binding, Adrenergic α2A: repeat assays, each datapoint shown
# T2 construct: expressed in transfected cells; host or cells: insect Sf9 cells
# T2 sequence (P08913 1-465): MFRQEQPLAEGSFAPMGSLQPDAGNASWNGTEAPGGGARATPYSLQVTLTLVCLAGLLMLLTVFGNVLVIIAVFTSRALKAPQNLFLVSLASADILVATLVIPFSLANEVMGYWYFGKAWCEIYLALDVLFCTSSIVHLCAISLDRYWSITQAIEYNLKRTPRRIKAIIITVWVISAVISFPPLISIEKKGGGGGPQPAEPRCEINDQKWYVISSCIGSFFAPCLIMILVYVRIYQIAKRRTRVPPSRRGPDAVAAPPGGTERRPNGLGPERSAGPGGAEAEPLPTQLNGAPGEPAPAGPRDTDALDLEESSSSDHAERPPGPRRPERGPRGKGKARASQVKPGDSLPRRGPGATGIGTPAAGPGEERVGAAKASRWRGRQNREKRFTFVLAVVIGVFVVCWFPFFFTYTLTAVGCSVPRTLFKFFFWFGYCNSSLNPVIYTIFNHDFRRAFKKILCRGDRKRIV
# Outline: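 In 50 mM Tris-HCl (pH 7.4) containing 12.5 mM MgCl2 and 2 mM EDTA, Sf9-expressed receptor was exposed to test compound plus 1 nM [3H]MK-912 at 25 °C for 60 min. Specific binding, corrected using 10 μM WB-4101, was quantified by filtration and counting and expressed as percent inhibition.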
# [3] = biological target: T3, human recombinant adrenergic α1D receptor (Homo sapiens, UniProt P25100); assay: Radioligand binding, adrenergic α1D ([3H]Prazosin)
# T3 construct: expressed in transfected cells; host or cells: HEK-293
# T3 sequence (P25100 1-572): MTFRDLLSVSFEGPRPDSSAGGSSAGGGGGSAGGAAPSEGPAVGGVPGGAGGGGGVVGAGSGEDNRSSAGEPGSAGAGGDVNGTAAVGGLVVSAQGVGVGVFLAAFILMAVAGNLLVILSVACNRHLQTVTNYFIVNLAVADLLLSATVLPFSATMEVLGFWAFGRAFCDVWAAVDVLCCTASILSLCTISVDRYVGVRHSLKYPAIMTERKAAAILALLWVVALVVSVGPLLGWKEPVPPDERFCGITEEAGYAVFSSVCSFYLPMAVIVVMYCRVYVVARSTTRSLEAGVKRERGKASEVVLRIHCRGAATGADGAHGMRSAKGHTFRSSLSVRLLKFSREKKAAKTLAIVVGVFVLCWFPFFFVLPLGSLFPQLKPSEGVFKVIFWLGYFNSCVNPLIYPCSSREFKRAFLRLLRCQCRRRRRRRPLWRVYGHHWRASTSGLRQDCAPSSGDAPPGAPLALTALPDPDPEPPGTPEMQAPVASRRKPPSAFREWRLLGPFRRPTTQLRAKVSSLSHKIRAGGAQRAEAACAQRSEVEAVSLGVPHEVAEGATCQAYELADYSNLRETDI
# Protocol: Compounds were incubated with 0.6 nM [3H]Prazosin for 60 min at 25° C. Non-specific binding was estimated in the presence of 10 μM phentolamine. Receptor proteins were filtered and washed, the filters were then counted to determine [3H]Prazosin specifically bound. […] Biochemical assay results are presented as the percent inhibition of specific binding in Table B1.
# [4] = biological target: T4, rat adrenergic α1B receptor (Rattus norvegicus, UniProt P15823); assay: Radioligand binding, adrenergic α1B ([3H]Prazosin); conditions: for Percentage inhibition of ligand binding, Adrenergic α1B / Percentage inhibition of ligand binding, Adrenergic α1B (0.1 μM): 0.1 µM
# T4 construct: rat adrenergic α1B receptor obtained from Wistar Rat liver; from tissue; host or cells: Wistar rat liver
# T4 sequence (P15823 1-515): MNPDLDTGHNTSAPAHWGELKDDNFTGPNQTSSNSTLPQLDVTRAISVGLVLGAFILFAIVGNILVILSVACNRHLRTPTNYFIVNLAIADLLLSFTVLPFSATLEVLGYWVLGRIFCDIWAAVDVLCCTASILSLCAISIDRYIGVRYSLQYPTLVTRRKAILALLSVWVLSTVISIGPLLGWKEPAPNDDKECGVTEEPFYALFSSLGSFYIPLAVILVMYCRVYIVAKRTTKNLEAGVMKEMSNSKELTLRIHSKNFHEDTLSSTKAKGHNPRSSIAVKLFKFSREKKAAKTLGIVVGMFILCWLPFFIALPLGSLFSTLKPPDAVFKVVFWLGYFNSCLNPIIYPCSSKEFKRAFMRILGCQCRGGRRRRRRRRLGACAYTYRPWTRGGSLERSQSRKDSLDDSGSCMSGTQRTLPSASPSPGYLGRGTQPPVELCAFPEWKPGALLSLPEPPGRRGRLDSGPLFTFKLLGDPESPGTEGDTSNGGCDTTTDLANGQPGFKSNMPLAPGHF
# Outline: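 Filter binding with Wistar rat liver α1B preparation: test compound plus 0.25 nM [3H]prazosin, 1 h at 25° C in modified Tris-HCl buffer pH 7.4.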
# [5] = compound at 0.1 μM, [3H]Rauwolscine, repeat assays, each datapoint shown, read-out: Percentage inhibition of ligand binding, Adrenergic α2B
# [6] = compound at 0.1 μM, [3H]Prazosin, repeat assays, each datapoint shown, read-out: Percentage inhibition of ligand binding, Adrenergic α1D
# [7] = compound at 0.03 μM, [3H]Rauwolscine, repeat assays, each datapoint shown, read-out: Percentage inhibition of ligand binding, Adrenergic α2B
# [8] = compound at 0.1 μM, [3H]Prazosin, repeat assays, each datapoint shown
# [9] = compound at 0.1 μM, [3H]Prazosin, repeat assays, each datapoint shown, read-out: Percentage inhibition of ligand binding, Adrenergic α1B
# [10] = read-out: Percentage inhibition of ligand binding, Adrenergic α2B (0.03 μM), compound at 0.03 μM, [3H]Rauwolscine, repeat datapoints each shown
# [11] = compound at 0.1 μM, [3H]Prazosin, repeat datapoints each shown
# [12] = read-out: Percentage inhibition of ligand binding, Adrenergic α1B (0.1 μM), compound at 0.1 μM, [3H]Prazosin, repeat datapoints each shown
# [13] = compound at 0.03 μM, [3H]Rauwolscine, repeat datapoints each shown, 0.03 µM
# [14] = [3H]MK-912, repeat datapoints each shown
smiles,measurement,setting,value
"Cc1cnc2c(c1)c1c(n2CCc2ccc(C)nc2)CCN2CCCC12 (stereo not drawn) [compound 74, 10-methyl-7-(2-(6-methylpyridin-3-yl)ethyl)-2,3,5,6,7,11c-hexahydro-1H-pyrido[3′,2′:4,5]pyrrolo[2,3-g]indolizine]",inhibition at 0.1 µM,[1]; [5],104%
same,"Percentage inhibition of ligand binding, Adrenergic α2A",[2]; [3H]MK-912,6%
same,inhibition at 0.1 µM,[3]; [6],57%
"Cc1ccc2c(c1)c1c(n2C2=C(c3cn[nH]c3)CCC2)CCN(C)C1 [compound 77, 5-(2-(1H-pyrazol-4-yl)cyclopent-1-enyl)-2,8-dimethyl-2,3,4,5-tetrahydro-1H-pyrido[4,3-b]indole]",inhibition at 0.03 µM,[1]; [7],84%
same,inhibition at 0.1 µM,[1]; [5],91%
same,"Percentage inhibition of ligand binding, Adrenergic α1B",[4]; [8],6%
same,inhibition at 0.1 µM,[4]; [9],5%
same,inhibition at 0.1 µM,[3]; [6],10%
C/C(=C\n1c2c(c3cc(C)cnc31)CN(C)CC2)c1ccc(C)nc1 [compound 78],inhibition at 0.03 µM,[1]; [7],67%
same,inhibition at 0.1 µM,[1]; [5],87%
same,"Percentage inhibition of ligand binding, Adrenergic α1B",[4]; [8],12%
same,inhibition at 0.1 µM,[4]; [9],11%
same,inhibition at 0.1 µM,[3]; [6],22%
CN1CCc2c(c3cc(F)ccc3n2CCc2ccc(F)cc2)C1 [compound 219],inhibition at 0.03 µM,"[2]; read-out: Percentage inhibition of ligand binding, Adrenergic α2A (0.03 μM), compound at 0.03 μM, [3H]MK-912, repeat datapoints each shown",69%
same,inhibition at 0.03 µM,"[3]; read-out: Percentage inhibition of ligand binding, Adrenergic α1D (0.03 μM), compound at 0.03 μM, [3H]Prazosin, repeat datapoints each shown",3%
"Cc1ccc2c(c1)c1c(n2CC(C)c2ccc(F)cc2)CCN(C)C1 (single isomer, unassigned) [288a]",inhibition at 0.1 µM,"[1]; 0.1 μM compound, read-out: Percentage inhibition of ligand binding, Adrenergic α2B",104%
same,"Percentage inhibition of ligand binding, Adrenergic α1D","[3]; 0.1 μM compound, 0.1 µM",88%
Cc1ccc2c(c1)c1c(n2CC(C)(O)c2ccncc2)CCN(C)C1 (stereo not drawn) [compound 2],inhibition at 0.03 µM,[1]; [7],75%
same,inhibition at 0.1 µM,[1]; [5],95%
same,"Percentage inhibition of ligand binding, Adrenergic α1B",[4]; [8],28%
same,inhibition at 0.1 µM,[4]; [9],27%
same,inhibition at 0.1 µM,[3]; [6],13%
CCCCC(O)(Cn1c2c(c3cc(Cl)ccc31)CN(C)CC2)c1ccc(F)cc1 (stereo not drawn) [33a],inhibition at 0.1 µM,[3]; [6],23%
Cc1ccc2c(c1)c1c(n2CC(O)c2ccc(F)cc2)CCN(C)C1 (stereo not drawn) [compound 30],inhibition at 0.1 µM,[1]; [5],91%
same,inhibition at 0.1 µM,[3]; [6],49%
CCC(O)(Cn1c2c(c3cc(Cl)ccc31)CN(C)CC2)c1ccc(F)cc1 (stereo not drawn) [II-160],inhibition at 0.03 µM,[1]; [10],39%
same,inhibition at 0.1 µM,"[1]; read-out: Percentage inhibition of ligand binding, Adrenergic α2B (0.1 μM), compound at 0.1 μM, [3H]Rauwolscine, repeat datapoints each shown",35%
same,"Percentage inhibition of ligand binding, Adrenergic α1B (0.1 μM)",[4]; [11],14%
same,inhibition at 0.1 µM,[4]; [12],7%
same,inhibition at 0.1 µM,"[3]; read-out: Percentage inhibition of ligand binding, Adrenergic α1D (0.1 μM), compound at 0.1 μM, [3H]Prazosin, repeat datapoints each shown",15%
"Cc1ccc2c(c1)c1c(n2CC(C)(O)c2cccnc2)C(O)CN(C)C1 (single isomer, unassigned) [II-151b]","Percentage inhibition of ligand binding, Adrenergic α2B (0.03 μM)",[1]; [13],78%
same,"Percentage inhibition of ligand binding, Adrenergic α2A (0.1 μM)",[2]; [14],11%
same,"Percentage inhibition of ligand binding, Adrenergic α1B (0.1 μM)",[4]; [11],13%
Cc1ccc2c(c1)c1c(n2CC(O)c2cnn[nH]2)CCN2CCCC12 (stereo not drawn) [II-138],inhibition at 0.03 µM,[1]; [10],77%
same,inhibition at 0.1 µM,"[2]; read-out: Percentage inhibition of ligand binding, Adrenergic α2A (0.1 μM), compound at 0.1 μM, [3H]MK-912, repeat datapoints each shown",9%
same,inhibition at 0.1 µM,[4]; [12],57%
CN1CCc2c(c3cccnc3n2CC(O)c2ccncc2)C1 (stereo not drawn) [II-78],inhibition at 0.03 µM,"[1]; 0.03 μM compound, read-out: Percentage inhibition of ligand binding, Adrenergic α2B",-9%
same,inhibition at 0.1 µM,"[2]; 0.1 μM compound, read-out: Percentage inhibition of ligand binding, Adrenergic α2A",1%
same,inhibition at 0.1 µM,"[4]; 0.1 μM compound, read-out: Percentage inhibition of ligand binding, Adrenergic α1B",-11%
"Cc1cc(C)c2c(c1)c1c(n2CC(O)c2ccncc2)CCN2CCCC12 (single isomer, unassigned) [II-125c, 2-(8,10-dimethyl-2,3,5,6-tetrahydro-1H-indolizino[7,8-b]indol-7(11cH)-yl)-1-(pyridin-4-yl)ethanol]","Percentage inhibition of ligand binding, Adrenergic α2B (0.03 μM)",[1]; [13],67%
same,"Percentage inhibition of ligand binding, Adrenergic α2A (0.1 μM)",[2]; [14],9%
same,"Percentage inhibition of ligand binding, Adrenergic α1B (0.1 μM)",[4]; [11],42%
"Cc1ccc2c(c1)c1c(n2CC(O)c2ccc(F)cc2)CN(C)CC1 (single isomer, unassigned) [18b, 2-(2,6-dimethyl-1,2,3,4-tetrahydro-β-carbolin-9-yl)-1-(4-fluoro-phenyl)-ethanol]","Percentage inhibition of ligand binding, Adrenergic α2B","[1]; compound at 0.03 μM, [3H]Rauwolscine, repeat assays, each datapoint shown, 0.03 µM",61%
same,"Percentage inhibition of ligand binding, Adrenergic α2A",[2]; [3H]MK-912,32%
same,"Percentage inhibition of ligand binding, Adrenergic α1B",[4]; [8],87%
